Key:
Human PKMYT1 = target: T1, Human PKMYT1 (Homo sapiens, UniProt Q99640); assay: PKMYT1 biochemical ADP-Glo enzymatic assay
T1 construct: Human PKMYT1 75-362 was cloned as a TEV cleavable 6xHis fusion; 6xHis (TEV cleavable) (cleaved yes); made in house; host or cells: bacterial cells
T1 sequence (Q99640 75-362): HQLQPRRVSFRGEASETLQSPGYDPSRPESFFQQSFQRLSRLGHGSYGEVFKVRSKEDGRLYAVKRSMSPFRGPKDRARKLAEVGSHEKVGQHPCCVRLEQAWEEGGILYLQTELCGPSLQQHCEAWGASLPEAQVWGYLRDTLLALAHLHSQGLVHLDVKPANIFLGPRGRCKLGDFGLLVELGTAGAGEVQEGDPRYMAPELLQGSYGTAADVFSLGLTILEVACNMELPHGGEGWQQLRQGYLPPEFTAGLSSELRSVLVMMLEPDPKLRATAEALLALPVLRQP
Method in brief: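 Measures inhibition of PKMYT1 autonomous ATP hydrolysis: bacterially expressed human enzyme (75-362, tag cleaved) at 15 nM with 500 µM ATP for 60 min at 26 °C, then ADP-Glo Max detection. IC50s accepted only when replicates agreed within 3-fold and curve r2 exceeded 0.9.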

WEE1 = target: T2, WEE1 (Homo sapiens, UniProt P30291); assay: Selectivity versus WEE1 assay (ADP-Glo enzymatic assay); type: biochemical; conditions: for IC50: ADP-Glo; for PKMYT1 vs. WEE1 selectivity: fold difference in selectivity for PKMYT1 over WEE1
T2 construct: purchased Thermo Fisher PR7373A
T2 sequence (P30291 whole entry): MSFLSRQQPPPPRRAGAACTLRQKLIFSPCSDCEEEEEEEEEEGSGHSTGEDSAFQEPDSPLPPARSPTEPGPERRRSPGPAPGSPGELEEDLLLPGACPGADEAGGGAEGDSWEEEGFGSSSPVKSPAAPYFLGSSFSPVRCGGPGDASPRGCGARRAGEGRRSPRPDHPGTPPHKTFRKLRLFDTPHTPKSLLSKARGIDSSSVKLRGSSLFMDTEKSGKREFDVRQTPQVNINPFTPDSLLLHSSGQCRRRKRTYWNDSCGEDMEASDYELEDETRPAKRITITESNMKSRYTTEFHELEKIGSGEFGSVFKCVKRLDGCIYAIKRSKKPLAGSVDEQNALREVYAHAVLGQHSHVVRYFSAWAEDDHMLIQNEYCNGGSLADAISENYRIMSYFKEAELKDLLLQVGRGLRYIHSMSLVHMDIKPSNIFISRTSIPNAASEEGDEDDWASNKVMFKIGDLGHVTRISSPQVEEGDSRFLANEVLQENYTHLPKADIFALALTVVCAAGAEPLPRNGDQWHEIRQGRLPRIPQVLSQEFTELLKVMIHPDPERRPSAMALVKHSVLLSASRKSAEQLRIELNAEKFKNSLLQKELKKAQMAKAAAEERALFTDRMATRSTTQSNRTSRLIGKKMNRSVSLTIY
Method in brief: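 Same format as the PKMYT1 assay: WEE1 at 15 nM final with 30 µM ATP, 60 min at 26° C, ADP-Glo luminescence detection, IC50 by dose-response fitting.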

[1] = PKMYT1 kinase domain 15 nM, ADP-Glo, banded values
[2] = ADP-Glo, 15 nM PKMYT1 kinase domain, 500 µM ATP, 60 minutes at 26° C., banded
[3] = 15 nM WEE1, 60 minutes at 26° C., banded
[4] = banded, ">N" = at least in this band but could be higher

SMILES	IC50 (Human PKMYT1; [2]) [µM]	IC50 (WEE1; [3]) [µM]	PKMYT1 vs. WEE1 selectivity (WEE1; [4])	other results
Cc1ccc(O)c(C)c1NC(=O)c1cnc(Nc2nn(C)cc2C#N)s1 [BAA-496, 2-((4-cyano-1-methyl-1H-pyrazol-3-yl)amino)-N-(3-hydroxy-2,6-dimethylphenyl)thiazole-5-carboxamide]	–	–	–	IC50 (Human PKMYT1; [1]): < 0.05 µM; IC50 (WEE1; WEE1 15 nM, banded values): > 11 µM; PKMYT1 vs. WEE1 selectivity (WEE1; banded): Y (1000-5000 fold)
CCNc1ncc(C(=O)Nc2c(C)ccc(O)c2C)s1 [BAA-060, 2-(ethylamino)-N-(3-hydroxy-2,6-dimethyl-phenyl)thiazole-5-carboxamide]	0.05 to 1	> 11	>X (100-<1000 fold)	–
COc1ccc(CC(=O)N2CC[C@@H](n3ccc(Nc4ncc(C(=O)Nc5c(C)ccc(O)c5C)s4)n3)C2)cc1 [BAA-089]	0.05 to 1	> 11	>X (100-<1000 fold)	–
Cc1ccc(O)c(C)c1NC(=O)c1cnc(Nc2nccc3ncccc23)s1 [BAA-603, 2-((1,6-naphthyridin-5-yl)amino)-N-(3-hydroxy-2,6-dimethylphenyl)thiazole-5-carboxamide]	–	–	–	IC50 (Human PKMYT1; [1]): 0.05 to 1 µM; IC50 (WEE1; WEE1 15 nM, banded values): > 11 µM; PKMYT1 vs. WEE1 selectivity (WEE1; banded): X (100-<1000 fold)
Cc1cc(Nc2ncc(C(=O)Nc3c(C)ccc(O)c3C)s2)n(CCC(N)=O)n1 [BAA-240, 2-((1-(3-amino-3-oxopropyl)-3-methyl-1H-pyrazol-5-yl)amino)-N-(3-hydroxy-2,6-dimethylphenyl) thiazole-5-carboxamide]	0.05 to 1	> 11	X (100-<1000 fold)	–
Cc1cnc(Nc2ncc(C(=O)Nc3c(C)ccc(O)c3C)s2)s1 [BAA-262, N-(3-hydroxy-2,6-dimethylphenyl)-2-((5-methylthiazol-2-yl)amino)thiazole-5-carboxamide]	< 0.05	> 11	X (100-<1000 fold)	–
Cc1ccc(O)c(C)c1NC(=O)c1cnc(Nc2cc(C#N)n(C)n2)s1 [BAA-505, 2-((5-cyano-1-methyl-1H-pyrazol-3-yl)amino)-N-(3-hydroxy-2,6-dimethylphenyl)thiazole-5-carboxamide]	–	–	–	IC50 (Human PKMYT1; [1]): 0.05 to 1 µM; IC50 (WEE1; WEE1 15 nM, banded values): 1 to 11 µM; PKMYT1 vs. WEE1 selectivity (WEE1; banded): W (10-<100 fold)
Cc1ccc(O)c(C)c1NC(=O)c1cnc(Nc2ccn(CC(=O)N3CC4(CNC4)C3)n2)s1 [BAA-200, 2-[[1-[2-(2,6-Diazaspiro[3.3]heptan-2-yl)-2-oxo-ethyl]pyrazol-3-yl]amino]-N-(3-hydroxy-2,6-dimethyl-phenyl)thiazole-5-carboxamide 2,2,2-trifluoroacetate]	< 0.05	> 11	X (100-<1000 fold)	–
CCOC(=O)CCCn1ccc(Nc2ncc(C(=O)Nc3c(C)ccc(O)c3C)s2)n1 [BAA-022]	0.05 to 1	1 to 11	W (10-<100 fold)	–
Cc1ccc(O)c(C)c1NC(=O)c1cnc(Nc2cc(C(N)=O)nn2C)s1 [BAA-131, 2-[(5-Carbamoyl-2-methyl-pyrazol-3-yl)amino]-N-(3-hydroxy-2,6-dimethyl-phenyl)thiazole-5-carboxamide]	< 0.05	> 11	Y (1000-5000 fold)	–
Cc1ccc(O)c(C)c1NC(=O)c1cnc(Nc2ccn(CC(=O)N3CCC(C)(O)CC3)n2)s1 [BAA-169, N-(3-hydroxy-2,6-dimethyl-phenyl)-2-[[1-[2-(4-hydroxy-4-methyl-1-piperidyl)-2-oxo-ethyl]pyrazol-3-yl]amino]thiazole-5-carboxamide]	< 0.05	> 11	Y (1000-5000 fold)	–
Cc1ccc(O)c(C)c1NC(=O)c1cnc(Nc2ccn(C)n2)s1 [BAA-004, N-(3-hydroxy-2,6-dimethyl-phenyl)-2-[(1-methylpyrazol-3-yl)amino]thiazole-5-carboxamide]	0.05 to 1	1 to 11	X (100-<1000 fold)	IC50 (Human PKMYT1; PKMYT1 biochemical ADP-Glo enzymatic assay, Comparison Data 2): 0.055 µM; improvement in PKMYT1 IC50 as compared to REF-003 (Human PKMYT1; vs REF-003): 987 fold; improvement in PKMYT1 IC50 as compared to REF-004 (Human PKMYT1; vs REF-004): > 1800 fold
Cc1ccc(O)c(C)c1NC(=O)c1cnc(Nc2nc3c(s2)COCC3)s1 [BAA-029, 2-(6,7-dihydro-4H-pyrano[4,3-d]thiazol-2-ylamino)-N-(3-hydroxy-2,6-dimethyl-phenyl)thiazole-5-carboxamide]	0.05 to 1	> 11	X (100-<1000 fold)	–
Cc1ccc(O)c(C)c1NC(=O)c1cnc(Nc2cncc(-c3ccc(F)cc3)c2)s1 [BAA-305, 2-((5-(4-fluorophenyl)pyridin-3-yl)amino)-N-(3-hydroxy-2,6-dimethylphenyl)thiazole-5-carboxamide]	1 to 11	> 11	W (10-<100 fold)	–
Cc1ccc(O)c(C)c1NC(=O)c1cnc(Nc2ccn(C(C)C)n2)s1 [BAA-008, N-(3-hydroxy-2,6-dimethyl-phenyl)-2-[(1-isopropylpyrazol-3-yl)amino]thiazole-5-carboxamide]	0.05 to 1	1 to 11	X (100-<1000 fold)	–
Cc1ccc(O)c(C)c1NC(=O)c1cnc(Nc2cc(C(=O)N(C)C)n(C)n2)s1 [BAA-120, 2-[[5-(dimethylcarbamoyl)-1-methyl-pyrazol-3-yl]amino]-N-(3-hydroxy-2,6-dimethyl-phenyl)thiazole-5-carboxamide]	0.05 to 1	1 to 11	X (100-<1000 fold)	–
Cc1ccc(O)c(C)c1NC(=O)c1cnc(Nc2cc(C(=O)N3CCCC3)n(C)n2)s1 [BAA-544, N-(3-hydroxy-2,6-dimethylphenyl)-2-((1-methyl-5-(pyrrolidine-1-carbonyl)-1H-pyrazol-3-yl)amino)thiazole-5-carboxamide]	–	–	–	IC50 (Human PKMYT1; [1]): 0.05 to 1 µM; IC50 (WEE1; WEE1 15 nM, banded values): 1 to 11 µM; PKMYT1 vs. WEE1 selectivity (WEE1; banded): W (10-<100 fold)
Cc1ccc(O)c(C)c1NC(=O)c1cnc(Nc2cnn(CC(=O)N3CCCC3)c2C)s1 [BAA-556, N-(3-hydroxy-2,6-dimethylphenyl)-2-((5-methyl-1-(2-oxo-2-(pyrrolidin-1-yl)ethyl)-1H-pyrazol-4-yl)amino)thiazole-5-carboxamide]	–	–	–	IC50 (Human PKMYT1; [1]): 0.05 to 1 µM; IC50 (WEE1; WEE1 15 nM, banded values): > 11 µM; PKMYT1 vs. WEE1 selectivity (WEE1; banded): X (100-<1000 fold)
Cc1ccc(O)c(C)c1NC(=O)c1cnc(Nc2cc(C(=O)O)nn2C)s1 [BAA-121, 5-[[5-[(3-hydroxy-2,6-dimethyl-phenyl)carbamoyl]thiazol-2-yl]amino]-1-methyl-pyrazole-3-carboxylic acid]	0.05 to 1	> 11	X (100-<1000 fold)	–
Cc1ccc(O)c(C)c1NC(=O)c1cnc(Nc2ccn(CC(=O)N3CC4(CCC4)C3)n2)s1 [BAA-199]	< 0.05	1 to 11	Y (1000-5000 fold)	–
Cc1ccc(O)c(C)c1NC(=O)c1cnc(Nc2ccn(CC(=O)N3C[C@H]4C[C@@H]3CN4)n2)s1 [BAA-223, 2-((1-(2-((1R,4R)-2,5-diazabicyclo[2.2.1]heptan-2-yl)-2-oxoethyl)-1H-pyrazol-3-yl)amino)-N-(3-hydroxy-2,6-dimethylphenyl)thiazole-5-carboxamide]	< 0.05	> 11	X (100-<1000 fold)	–
Cc1ccc(O)c(C)c1NC(=O)c1cnc(Nc2ccn([C@@H]3CCN(C(=O)NCc4ccccc4)C3)n2)s1 [BAA-108, 2-[[1-[(3R)-1-(Benzylcarbamoyl)pyrrolidin-3-yl]pyrazol-3-yl]amino]-N-(3-hydroxy-2,6-dimethyl-phenyl)thiazole-5-carboxamide]	< 0.05	> 11	>Y (1000-5000 fold)	–
Cc1ccc(O)c(C)c1NC(=O)c1cnc(Nc2cc(C)n(C3CCS(=O)(=O)C3)n2)s1 (stereo not drawn) [BAA-564, 2-[[1-(1,1-Dioxothiolan-3-yl)-5-methyl-pyrazol-3-yl]amino]-N-(3-hydroxy-2,6-dimethyl-phenyl)thiazole-5-carboxamide]	–	–	–	IC50 (Human PKMYT1; [1]): 0.05 to 1 µM; IC50 (WEE1; WEE1 15 nM, banded values): 1 to 11 µM; PKMYT1 vs. WEE1 selectivity (WEE1; banded): W (10-<100 fold)
Cc1ccc(O)c(C)c1NC(=O)c1cnc(Nc2ccn([C@@H]3CCN(C(=O)NC4CC4)C3)n2)s1 [BAA-110, 2-[[1-[(3R)-1-(Cyclopropylcarbamoyl)pyrrolidin-3-yl]pyrazol-3-yl]amino]-N-(3-hydroxy-2.6-dimethyl-phenyl)thiazole-5-carboxamide]	0.05 to 1	> 11	>X (100-<1000 fold)	–
Cc1ccc(O)c(C)c1NC(=O)c1cnc(Nc2ccc3cc(Br)ccc3n2)s1 [BAA-300, 2-((6-bromoquinolin-2-yl)amino)-N-(3-hydroxy-2,6-dimethylphenyl)thiazole-5-carboxamide]	0.05 to 1	> 11	X (100-<1000 fold)	–
CCOC(=O)c1cc(Nc2ncc(C(=O)Nc3c(C)ccc(O)c3C)s2)nn1C [BAA-024]	< 0.05	1 to 11	X (100-<1000 fold)	–

— US20260297042A1, “BIARYLAMIDE DERIVATIVES AND THEIR USE AS PKMYT1 INHIBITORS” (CANCER RESEARCH TECHNOLOGY LIMITED, priority 2023, published 2026)
